Test results published in publication PMC12369477 (Journal of Experimental Botany, 2025).

Assays:
AtGH3.6 [1] = molecular target: T1, AtGH3.6 (Arabidopsis thaliana, UniProt Q9LSQ4); experiment: MST; format: binding
T1 construct: gene GH3.6
T1 sequence (Q9LSQ4 1-612): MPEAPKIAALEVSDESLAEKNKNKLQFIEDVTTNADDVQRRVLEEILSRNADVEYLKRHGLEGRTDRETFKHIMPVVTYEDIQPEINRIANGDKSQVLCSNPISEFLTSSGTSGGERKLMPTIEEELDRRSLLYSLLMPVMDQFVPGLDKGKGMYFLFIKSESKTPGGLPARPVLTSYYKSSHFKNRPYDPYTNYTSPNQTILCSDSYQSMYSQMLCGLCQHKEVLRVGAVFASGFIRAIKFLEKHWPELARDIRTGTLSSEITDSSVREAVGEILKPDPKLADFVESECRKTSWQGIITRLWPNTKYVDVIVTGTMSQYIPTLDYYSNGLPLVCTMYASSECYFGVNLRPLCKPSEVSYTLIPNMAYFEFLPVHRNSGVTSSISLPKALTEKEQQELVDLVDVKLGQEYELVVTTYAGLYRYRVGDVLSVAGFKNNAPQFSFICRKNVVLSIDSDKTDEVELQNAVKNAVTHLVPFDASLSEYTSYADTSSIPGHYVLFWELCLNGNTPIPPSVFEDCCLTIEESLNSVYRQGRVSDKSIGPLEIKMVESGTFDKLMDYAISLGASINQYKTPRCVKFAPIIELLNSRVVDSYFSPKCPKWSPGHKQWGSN

AtGH3.6 [2] = molecular target: T1, AtGH3.6; experiment: crystal structure with AMP and Asp; MST; format: binding
UGT74D1 = molecular target: T2, UGT74D1 (Arabidopsis thaliana, UniProt Q9SKC5); experiment: bacterial lysate glucosylation assay, HPLC-MS/MS; format: cell-based
T2 construct: recombinant AtUGT74D1 in E. coli lysate
T2 sequence (Q9SKC5 1-456): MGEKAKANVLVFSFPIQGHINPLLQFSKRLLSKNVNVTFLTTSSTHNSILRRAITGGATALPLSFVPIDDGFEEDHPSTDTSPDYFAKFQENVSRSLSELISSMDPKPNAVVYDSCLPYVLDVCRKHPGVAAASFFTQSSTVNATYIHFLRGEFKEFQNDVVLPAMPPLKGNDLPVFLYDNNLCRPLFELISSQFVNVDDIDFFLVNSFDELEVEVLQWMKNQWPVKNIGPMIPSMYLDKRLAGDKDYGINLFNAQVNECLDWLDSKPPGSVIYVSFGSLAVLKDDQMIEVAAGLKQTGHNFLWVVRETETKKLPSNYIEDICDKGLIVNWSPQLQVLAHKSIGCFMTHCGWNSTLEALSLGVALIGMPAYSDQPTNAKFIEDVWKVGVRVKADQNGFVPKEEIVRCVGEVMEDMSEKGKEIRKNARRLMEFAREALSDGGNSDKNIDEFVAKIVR

UGT84B1 = molecular target: T3, UGT84B1 (Arabidopsis thaliana, UniProt O22182); experiment: bacterial lysate glucosylation assay, HPLC-MS/MS; format: cell-based
T3 construct: recombinant AtUGT84B1 in E. coli lysate
T3 sequence (O22182 1-456): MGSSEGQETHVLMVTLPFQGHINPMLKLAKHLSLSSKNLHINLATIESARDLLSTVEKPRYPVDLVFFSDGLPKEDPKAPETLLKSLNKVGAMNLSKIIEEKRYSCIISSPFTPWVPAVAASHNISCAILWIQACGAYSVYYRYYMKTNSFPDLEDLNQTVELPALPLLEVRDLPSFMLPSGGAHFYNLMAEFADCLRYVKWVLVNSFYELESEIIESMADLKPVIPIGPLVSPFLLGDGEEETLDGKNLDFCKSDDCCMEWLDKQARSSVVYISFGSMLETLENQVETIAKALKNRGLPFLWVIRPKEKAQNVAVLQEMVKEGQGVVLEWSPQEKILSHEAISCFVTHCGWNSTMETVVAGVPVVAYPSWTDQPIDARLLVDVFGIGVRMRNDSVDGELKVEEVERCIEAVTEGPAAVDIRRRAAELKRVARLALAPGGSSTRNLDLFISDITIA

AtGH3.6 [3] = molecular target: T1, AtGH3.6; experiment: MST; also conjugated by AtGH3.[…] in bacterial lysate assay; format: binding

`N[C@@H](CCC(=O)O)C(=O)O` [Glu] showed a Kd (AtGH3.6 [1]) of 720 µM.
`N[C@@H](CC(=O)O)C(=O)O` [Asp, aspartate] showed a Kd (AtGH3.6 [2]) of 680 µM.
For `O=C(O)Cc1c[nH]c2ccccc12` [IAA, indole-3-acetic acid], the “bacterial lysate glucosylation assay, HPLC-MS/MS” value (UGT74D1) was “Both UGT84B1 and UGT74D1 recombinant proteins showed the capability to produce IAA-glc and PAA-glc”, the Kd (AtGH3.6 [1]; read-out: Kd) was ~60 µM and the “bacterial lysate glucosylation assay, HPLC-MS/MS” value (UGT84B1) was “Both UGT84B1 and UGT74D1 recombinant proteins showed the capability to produce IAA-glc and PAA-glc”.
`O=C(O)Cc1ccccc1` [PAA, phenylacetic acid] was tested, and the Kd (AtGH3.6 [3]) was ~60 µM.
